Columns and labels:
Type in all cases: cell-based, human
lymphocytes [1] = test: aberrant enzyme activities in febrile children, lymphocytes (Table 7)
monocytes = test: aberrant enzyme activities in febrile children, monocytes (Table 7)
granulocytes [2] = test: aberrant enzyme activities in febrile children, granulocytes (Table 7)
lymphocytes [3] = test: enzyme activity with fluorogenic substrate, normal lymphocytes (Table 3A)
[4] = tested on: metabolically active whole cell; test: substrate panel in normals and HIV + patients, TB infection (Table 4); design: unit not given here
Protocol: A panel of assay compounds are assembled consisting of Ala-aminopeptidase and Lys-aminopeptidase, Dipeptidyl peptidase IV (Ala-Ala)2 rhodamine 110 and Cathepsin D to indicate possible TB infection in AIDS related cases.
A panel Of enzymatic substrates is performed consisting of Ala-aminopeptidase and Lys-aminopeptidase, Dipeptidyl peptidase IV (Ala-Ala)2 rhodamine 110 and Cathepsin D to indicate possible TB infection in AIDS related cases.

lymphocytes [5] = test: peptidase activity in leukemia and non-leukemia patients, lymphocytes (Table 6C); design: unit not given here
Description: (§1) Artificial intelligence was used to analyze data of cellular enzyme functions, and determine normal and disease states. Peptidases were used to distinguish leukemia from non-leukemia (output pattern). For input patterns lymphocyte and granulocyte cell types were used with aminopeptidases, cathepsins and dipeptidylpeptidase enzyme activities. In this Example, illustrated in Tables 6A-6C, three normals and three leukemia patients were used as known output patterns for the neural network to learn (in practice, the larger the learning set the more accurate unknown prediction will be). Unknowns were then presented to the learned algorithm as shown in the test case examples. Clinical diagnosis was confirmed by physicians. The trained neural network was able to correctly classify the leukemia from the non-leukemia.

granulocytes [6] = test: peptidase activity in leukemia and non-leukemia patients, granulocytes (Table 6C); design: unit not given here
Description: as §1

Compound: O=C1OC2(c3ccc(OP(=O)(O)O)cc3Oc3cc(OP(=O)(O)O)ccc32)c2ccccc21 [DPO4, (PO4)2 fluorescein]
- aberrant enzyme activity, LYMPHS (lymphocytes [1]; P88 Enteritis): .smallcircle.
- aberrant enzyme activity, LYMPHS (lymphocytes [1]; P89 Viral Stomatitis): .smallcircle.
- aberrant enzyme activity, LYMPHS (lymphocytes [1]; P92 Adenitis): .smallcircle.
- aberrant enzyme activity, LYMPHS (lymphocytes [1]; P95 Viral Syndrome): .smallcircle.
- aberrant enzyme activity, LYMPHS (lymphocytes [1]; P96 Viral Syndrome): - (>0.25 Decrease over normal range)
- aberrant enzyme activity, LYMPHS (lymphocytes [1]; P97 Pyelonephritis): .smallcircle.
- aberrant enzyme activity, LYMPHS (lymphocytes [1]; P99 Viral Syndrome): .smallcircle.
- aberrant enzyme activity, LYMPHS (lymphocytes [1]; P101 Fever -- Unknown Origin): .smallcircle.
- aberrant enzyme activity, LYMPHS (lymphocytes [1]; P102 UTI): .smallcircle.
- aberrant enzyme activity, LYMPHS (lymphocytes [1]; P103 Viral Syndrome): .smallcircle.
- aberrant enzyme activity, MONOS (monocytes; P88 Enteritis): .smallcircle.
- aberrant enzyme activity, MONOS (monocytes; P89 Viral Stomatitis): + (>0.25 Increase over normal range)
- aberrant enzyme activity, MONOS (monocytes; P92 Adenitis): + (>0.25 Increase over normal range)
- aberrant enzyme activity, MONOS (monocytes; P95 Viral Syndrome): + (>0.25 Increase over normal range)
- aberrant enzyme activity, MONOS (monocytes; P97 Pyelonephritis): .smallcircle.
- aberrant enzyme activity, MONOS (monocytes; P99 Viral Syndrome): .smallcircle.
- aberrant enzyme activity, MONOS (monocytes; P101 Fever -- Unknown Origin): + (>0.25 Increase over normal range)
- aberrant enzyme activity, MONOS (monocytes; P102 UTI): .smallcircle.
- aberrant enzyme activity, MONOS (monocytes; P103 Viral Syndrome): + (>0.25 Increase over normal range)
- aberrant enzyme activity, GRANS (granulocytes [2]; P88 Enteritis): .smallcircle.
- aberrant enzyme activity, GRANS (granulocytes [2]; P89 Viral Stomatitis): + (>0.25 Increase over normal range)
- aberrant enzyme activity, GRANS (granulocytes [2]; P92 Adenitis): + (>0.25 Increase over normal range)
- aberrant enzyme activity, GRANS (granulocytes [2]; P95 Viral Syndrome): .smallcircle.
- aberrant enzyme activity, GRANS (granulocytes [2]; P96 Viral Syndrome): .smallcircle.
- aberrant enzyme activity, GRANS (granulocytes [2]; P97 Pyelonephritis): .smallcircle.
- aberrant enzyme activity, GRANS (granulocytes [2]; P99 Viral Syndrome): .smallcircle.
- aberrant enzyme activity, GRANS (granulocytes [2]; P101 Fever -- Unknown Origin): + (>0.25 Increase over normal range)
- aberrant enzyme activity, GRANS (granulocytes [2]; P102 UTI): .smallcircle.
- aberrant enzyme activity, GRANS (granulocytes [2]; P103 Viral Syndrome): + (>0.25 Increase over normal range)
- NORMAL LEUKOCYTE ENZYME ACTIVITY LYMPHS Mean (lymphocytes [3]): 54.29

Compound: CC(=O)Oc1ccc2c(c1)Oc1cc(OC(C)=O)ccc1C21OC(=O)c2ccccc21 [FDA-NAF, fluorescein diacetate, reference compound]
- aberrant enzyme activity, LYMPHS (lymphocytes [1]; P88 Enteritis): .smallcircle.
- aberrant enzyme activity, LYMPHS (lymphocytes [1]; P97 Pyelonephritis): .smallcircle.
- aberrant enzyme activity, LYMPHS (lymphocytes [1]; P99 Viral Syndrome): .smallcircle.
- aberrant enzyme activity, LYMPHS (lymphocytes [1]; P102 UTI): .smallcircle.
- aberrant enzyme activity, MONOS (monocytes; P88 Enteritis): .smallcircle.
- aberrant enzyme activity, MONOS (monocytes; P97 Pyelonephritis): .smallcircle.
- aberrant enzyme activity, GRANS (granulocytes [2]; P88 Enteritis): .smallcircle.
- aberrant enzyme activity, GRANS (granulocytes [2]; P97 Pyelonephritis): .smallcircle.
- aberrant enzyme activity, GRANS (granulocytes [2]; P102 UTI): .smallcircle.
- NORMAL LEUKOCYTE ENZYME ACTIVITY LYMPHS Mean (lymphocytes [3]): 17.98

Compound: O=C1OC2(c3ccc(OC4O[C@H](CO)[C@H](O)[C@H](O)[C@H]4O)cc3Oc3cc(OC4O[C@H](CO)[C@H](O)[C@H](O)[C@H]4O)ccc32)c2ccccc21 (stereo partly drawn) [GALAC, (D-galactose)2 fluorescein]
- aberrant enzyme activity, LYMPHS (lymphocytes [1]; P88 Enteritis): .smallcircle.
- aberrant enzyme activity, LYMPHS (lymphocytes [1]; P89 Viral Stomatitis): .smallcircle.
- aberrant enzyme activity, LYMPHS (lymphocytes [1]; P92 Adenitis): .smallcircle.
- aberrant enzyme activity, LYMPHS (lymphocytes [1]; P97 Pyelonephritis): .smallcircle.
- aberrant enzyme activity, LYMPHS (lymphocytes [1]; P103 Viral Syndrome): .smallcircle.
- aberrant enzyme activity, MONOS (monocytes; P88 Enteritis): .smallcircle.
- aberrant enzyme activity, MONOS (monocytes; P89 Viral Stomatitis): .smallcircle.
- aberrant enzyme activity, MONOS (monocytes; P92 Adenitis): .smallcircle.
- aberrant enzyme activity, MONOS (monocytes; P97 Pyelonephritis): .smallcircle.
- aberrant enzyme activity, MONOS (monocytes; P103 Viral Syndrome): .smallcircle.
- aberrant enzyme activity, GRANS (granulocytes [2]; P88 Enteritis): .smallcircle.
- aberrant enzyme activity, GRANS (granulocytes [2]; P89 Viral Stomatitis): .smallcircle.
- aberrant enzyme activity, GRANS (granulocytes [2]; P92 Adenitis): .smallcircle.
- aberrant enzyme activity, GRANS (granulocytes [2]; P97 Pyelonephritis): .smallcircle.
- aberrant enzyme activity, GRANS (granulocytes [2]; P103 Viral Syndrome): .smallcircle.
- NORMAL LEUKOCYTE ENZYME ACTIVITY LYMPHS Mean (lymphocytes [3]): 0.38

Compound: C[C@H](NC(=O)[C@@H](N)CCCCN)C(=O)Nc1ccc2c(c1)Oc1cc(NC(=O)[C@H](C)NC(=O)[C@@H](N)CCCCN)ccc1C21OC(=O)c2ccccc21 [KA-M, (Lys-Ala)2 Rho 110]
- aberrant enzyme activity, LYMPHS (lymphocytes [1]; P88 Enteritis): .smallcircle.
- aberrant enzyme activity, LYMPHS (lymphocytes [1]; P89 Viral Stomatitis): .smallcircle.
- aberrant enzyme activity, LYMPHS (lymphocytes [1]; P92 Adenitis): .smallcircle.
- aberrant enzyme activity, LYMPHS (lymphocytes [1]; P95 Viral Syndrome): .smallcircle.
- aberrant enzyme activity, LYMPHS (lymphocytes [1]; P96 Viral Syndrome): .smallcircle.
- aberrant enzyme activity, LYMPHS (lymphocytes [1]; P97 Pyelonephritis): .smallcircle.
- aberrant enzyme activity, LYMPHS (lymphocytes [1]; P99 Viral Syndrome, listed as Lys/Ala-M): + (>0.25 Increase over normal range)
- aberrant enzyme activity, LYMPHS (lymphocytes [1]; P102 UTI): .smallcircle.
- aberrant enzyme activity, LYMPHS (lymphocytes [1]; P103 Viral Syndrome): .smallcircle.
- aberrant enzyme activity, MONOS (monocytes; P88 Enteritis, listed as Lys/Ala-M): - (>0.25 Decrease over normal range)
- aberrant enzyme activity, MONOS (monocytes; P89 Viral Stomatitis, listed as Lys/Ala-M): - (>0.25 Decrease over normal range)
- aberrant enzyme activity, MONOS (monocytes; P92 Adenitis, listed as Lys/Ala-M): - (>0.25 Decrease over normal range)
- aberrant enzyme activity, MONOS (monocytes; P95 Viral Syndrome, listed as Lys/Ala-M): - (>0.25 Decrease over normal range)
- aberrant enzyme activity, MONOS (monocytes; P96 Viral Syndrome, listed as Lys/Ala-M): - (>0.25 Decrease over normal range)
- aberrant enzyme activity, MONOS (monocytes; P97 Pyelonephritis, listed as Lys/Ala-M): - (>0.25 Decrease over normal range)
- aberrant enzyme activity, MONOS (monocytes; P99 Viral Syndrome): .smallcircle.
- aberrant enzyme activity, MONOS (monocytes; P102 UTI): .smallcircle.
- aberrant enzyme activity, MONOS (monocytes; P103 Viral Syndrome, listed as Lys/Ala-M): - (>0.25 Decrease over normal range)
- aberrant enzyme activity, GRANS (granulocytes [2]; P88 Enteritis): .smallcircle.
- aberrant enzyme activity, GRANS (granulocytes [2]; P89 Viral Stomatitis): .smallcircle.
- aberrant enzyme activity, GRANS (granulocytes [2]; P92 Adenitis): .smallcircle.
- aberrant enzyme activity, GRANS (granulocytes [2]; P95 Viral Syndrome): .smallcircle.
- aberrant enzyme activity, GRANS (granulocytes [2]; P96 Viral Syndrome): .smallcircle.
- aberrant enzyme activity, GRANS (granulocytes [2]; P97 Pyelonephritis): .smallcircle.
- aberrant enzyme activity, GRANS (granulocytes [2]; P99 Viral Syndrome): .smallcircle.
- aberrant enzyme activity, GRANS (granulocytes [2]; P102 UTI): .smallcircle.
- aberrant enzyme activity, GRANS (granulocytes [2]; P103 Viral Syndrome): .smallcircle.
- NORMAL LEUKOCYTE ENZYME ACTIVITY LYMPHS Mean (lymphocytes [3]): 0.55

Compound: CC(C)[C@H](N)C(=O)N[C@@H](CO)C(=O)Nc1ccc2c(c1)Oc1cc(NC(=O)[C@H](CO)NC(=O)[C@@H](N)C(C)C)ccc1C21OC(=O)c2ccccc21 [VS, (H-L-Val--Ser)2 Rho 110 .2TFA]
- aberrant enzyme activity, LYMPHS (lymphocytes [1]; P95 Viral Syndrome): .smallcircle.
- aberrant enzyme activity, LYMPHS (lymphocytes [1]; P96 Viral Syndrome): .smallcircle.
- aberrant enzyme activity, LYMPHS (lymphocytes [1]; P97 Pyelonephritis): .smallcircle.
- aberrant enzyme activity, LYMPHS (lymphocytes [1]; P103 Viral Syndrome): .smallcircle.
- aberrant enzyme activity, MONOS (monocytes; P96 Viral Syndrome): .smallcircle.
- aberrant enzyme activity, MONOS (monocytes; P103 Viral Syndrome): .smallcircle.
- MEAN DELTA FL ([4]; HIV + PATIENTS): 32.5
- MEAN DELTA FL ([4]; NORMALS): 24.6
- enzyme activity, Lymphs (lymphocytes [5]; J4 11/21/91 acute leuk.): 0.05
- enzyme activity, Lymphs (lymphocytes [5]; J4 12/2/91 A L): 0.03
- enzyme activity, Lymphs (lymphocytes [5]; J4 12/3/91 acute leuk.): 0.04
- enzyme activity, Lymphs (lymphocytes [5]; J5 11/27/91 A M L): 0.05
- enzyme activity, Lymphs (lymphocytes [5]; J19 11/27/91 C L L): 0.01
- enzyme activity, Lymphs (lymphocytes [5]; J22 12/2/91 A M L): 0.01
- enzyme activity, Lymphs (lymphocytes [5]; J22 12/9/91 A M L): 0.04
- enzyme activity, Lymphs (lymphocytes [5]; N191 normal): 0.14
- enzyme activity, Lymphs (lymphocytes [5]; N192 normal): 0.08
- enzyme activity, Lymphs (lymphocytes [5]; N193 normal): 0.09
- enzyme activity, Lymphs (lymphocytes [5]; N194 normal): 0.07
- enzyme activity, Lymphs (lymphocytes [5]; N195 normal): 0.06
- enzyme activity, Lymphs (lymphocytes [5]; N197 normal): 0.11
- enzyme activity, Lymphs (lymphocytes [5]; N199 normal): 0.03
- enzyme activity, Lymphs (lymphocytes [5]; N200 normal): 0.06
- enzyme activity, Lymphs (lymphocytes [5]; N201 normal): 0.07
- enzyme activity, Lymphs (lymphocytes [5]; N202 normal): 0.04
- enzyme activity, Lymphs (lymphocytes [5]; N206 normal): 0.28
- enzyme activity, Lymphs (lymphocytes [5]; P68 tachycardia): 0.05
- enzyme activity, Lymphs (lymphocytes [5]; P69 pancreatic CA): 0.18
- enzyme activity, Lymphs (lymphocytes [5]; P70 cirrhosis/hemobilia): 0.04
- enzyme activity, Lymphs (lymphocytes [5]; P71 ac. pyelonephritis): 0.08
- enzyme activity, Grans (granulocytes [6]; J4 11/21/91 acute leuk.): 0.37
- enzyme activity, Grans (granulocytes [6]; J4 12/2/91 A L): 0.14
- enzyme activity, Grans (granulocytes [6]; J4 12/3/91 acute leuk.): 0.23
- enzyme activity, Grans (granulocytes [6]; J22 12/2/91 A M L): 0.22
- enzyme activity, Grans (granulocytes [6]; J22 12/9/91 A M L): 0.32
- enzyme activity, Grans (granulocytes [6]; N191 normal): 0.64
- enzyme activity, Grans (granulocytes [6]; N192 normal): 0.40
- enzyme activity, Grans (granulocytes [6]; N193 normal): 0.44
- enzyme activity, Grans (granulocytes [6]; N194 normal): 0.29
- enzyme activity, Grans (granulocytes [6]; N195 normal): 0.37
- enzyme activity, Grans (granulocytes [6]; N197 normal): 0.58
- enzyme activity, Grans (granulocytes [6]; N199 normal): 0.14
- enzyme activity, Grans (granulocytes [6]; N200 normal): 0.24
- enzyme activity, Grans (granulocytes [6]; N201 normal): 0.32
- enzyme activity, Grans (granulocytes [6]; N202 normal): 0.24
- enzyme activity, Grans (granulocytes [6]; P68 tachycardia): 0.33
- enzyme activity, Grans (granulocytes [6]; P69 pancreatic CA): 0.57
- enzyme activity, Grans (granulocytes [6]; P70 cirrhosis/hemobilia): 0.26
- enzyme activity, Grans (granulocytes [6]; P71 ac. pyelonephritis): 0.69
- aberrant enzyme activity, GRANS (granulocytes [2]; P96 Viral Syndrome): .smallcircle.
- aberrant enzyme activity, GRANS (granulocytes [2]; P97 Pyelonephritis): .smallcircle.
- aberrant enzyme activity, GRANS (granulocytes [2]; P103 Viral Syndrome): .smallcircle.

— patent US5698411A, “Method for determining activity of enzymes in metabolically active whole cells” (priority 1995, dated 1997)
